Source: patent publication US5359138A (Zaidan Hojin Biseibutsu Kagaku Kenkyu KaI, priority 1989, dated 1994)
“Also recorded” adds a separate entry of the source. Starred links: 1 amine or outer side, 2 acyl side, 3 side chain; linkers in the order of their positions; H or OH if unused. Non-standard residues stand in square brackets, D forms with d. Residues, ends and D or L forms follow the SMILES beside them. ξ: configuration not given here. *: point of attachment. ξ(3-Amino-2-oxopentanoyl) = CCC(N[*:1])C(=O)C(=O)[*:2]; Abu(ψCOCO) = CC[C@H](N[*:1])C(=O)C(=O)[*:2]; Butanoyl(4-Ph) = O=C(CCCc1ccccc1)*; Cbz = O=C(OCc1ccccc1)*; OBn = c1ccc(CO*)cc1

Columns and labels:
prolylendopeptidase = target: T1, prolylendopeptidase (Sus scrofa, UniProt P23687); assay: Determination of anti-prolylendopeptidase activity; assay type: biochemical, pig; details: for PPCE = Propylendopeptidase inhibition activity, IC50: pig kidney enzyme, substrate Z-Gly-Pro-beta-naphthylamide, 37° C., 30 minutes, pH 7.8
T1 construct: a pig kidney sample was subjected to a fractionation operation with ammonium sulfate; from tissue; host or cells: pig kidney
T1 sequence (P23687 whole entry): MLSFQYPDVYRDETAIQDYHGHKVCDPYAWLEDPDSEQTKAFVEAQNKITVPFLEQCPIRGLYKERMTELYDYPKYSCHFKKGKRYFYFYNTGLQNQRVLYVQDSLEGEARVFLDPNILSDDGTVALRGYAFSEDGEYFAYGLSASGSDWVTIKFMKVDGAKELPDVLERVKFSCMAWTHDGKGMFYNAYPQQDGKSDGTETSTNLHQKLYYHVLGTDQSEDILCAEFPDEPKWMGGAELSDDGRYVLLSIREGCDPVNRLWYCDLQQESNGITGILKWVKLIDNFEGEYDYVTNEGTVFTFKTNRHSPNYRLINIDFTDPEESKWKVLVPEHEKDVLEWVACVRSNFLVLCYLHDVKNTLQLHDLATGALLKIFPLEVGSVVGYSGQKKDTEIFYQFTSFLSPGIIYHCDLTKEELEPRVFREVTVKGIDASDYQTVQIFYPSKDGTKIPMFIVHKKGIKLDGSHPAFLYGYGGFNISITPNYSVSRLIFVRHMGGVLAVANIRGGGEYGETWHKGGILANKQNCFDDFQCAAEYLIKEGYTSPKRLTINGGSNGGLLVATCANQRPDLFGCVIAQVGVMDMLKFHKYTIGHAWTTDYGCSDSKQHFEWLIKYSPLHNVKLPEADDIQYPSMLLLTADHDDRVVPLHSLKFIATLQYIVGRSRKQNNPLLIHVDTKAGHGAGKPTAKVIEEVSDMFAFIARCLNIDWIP
Procedure: The determination of anti-prolylendopeptidase activity was conducted by a modified method based on the method by Yoshimoto et al (Biochim. Biophys. Acta, vol. 569, pages 184-192 (1979)).
A test tube was charged with a solution mixture consisting of (a) 0.2 ml of a solution of 0.5 mM N-benzyloxycarbonyl-L-glycyl-L-prolyl-beta-naphthylamide in 40% dioxane; (b) 0.5 ml of a 0.05M Tris-HCl buffer solution (pH 7.8); and (c) 0.25 ml of an aqueous solution containing the test material. The solution mixture was heated to 37° C. for 3 minutes, and admixed with 0.05 ml of a prolylendopeptidase solution to effect a reaction at 37° C. for 30 minutes. The prolylendopeptidase employed was that which had been obtained according to a modified method based on the enzyme purification method by Koida, Walter et al. (J. Biol. Chem. Vol. 251, pages 7593-7599 (1976), wherein a pig kidney sample was subjected to a fractionation operation with ammonium sulfate, and wherein a purification was effected by a column chromatography employing a DEAE-Sephadex A-50 column.
After the completion of the reaction, the reaction mixture was admixed with 1 ml of a 1M sodium acetate buffer solution containing 10% of Tween-20 and 0.1% of Fast Garnet GBC salt. The reaction mixture was allowed to stand at room temperature for 15 minutes, and then measured for the light absorption at 525 nm (a). At the same time, a control sample, which was free of the test compounds and contained only the buffer solution, was measured for the light absorption (b).
The prolylendopeptidase inhibition activity was determined by employing the formula: […]

cathepsin B = cathepsin B (Homo sapiens, UniProt P07858); assay: Cathepsin B inhibition activity (method by Knight); assay type: biochemical
Procedure: The elastase inhibition activity was determined according to a method by Mumford, R. A. et al (J. Biol. Chem., 225, 2227 (1980)). The cathepsin B inhibition activity was determined according to a method by Knight, C. G. (Biochem. J., 189, 447-453 (1980)).

Solubility of poststatin = assay type: physicochemical; details: solvents as named; listed as poststatin
mice = assay: Toxicity, LD50 (i.v.) in mice; assay type: in vivo
Procedure: The compounds according to the invention have a low toxicity. In the case of mice, LD50 (i.v.) of poststatin is at least 200 mg/kg. Therefore, it can be expected that the compounds according to the invention will be useful, for instance, as a drug for treating amnesia and autoimmune diseases including systemic erythematosus and the like.

Structure (SMILES) | PPCE = Propylendopeptidase inhibition activity, IC50 (prolylendopeptidase) [µg/mL] | CatB = Cathepsin B inhibition activity, IC50 (cathepsin B) [µg/mL] | Solubility (Solubility of poststatin) | LD50 (i.v.) (mice) | IC50 (prolylendopeptidase) [nM] | IC50 (cathepsin B; read-out: CatB = Cathepsin B inhibition activity, IC50) [nM]
CCC(NC(=O)[C@H](Cc1ccccc1)NC(=O)OCc1ccccc1)C(=O)C(=O)N[C@H](CC(C)C)C(=O)N[C@H](C(=O)OC(C)(C)C)C(C)C (mixture of isomers) [Compound 3, Z-L-phenylalanyl-(RS)-3-amino-2-oxopentanoyl-D-leucyl-L-valine t-butyl ester] | 0.11 | > 100 | – | – | – | –
CCC(NC(=O)[C@H](Cc1ccccc1)NC(=O)OCc1ccccc1)C(=O)C(=O)N[C@H](CC(C)C)C(=O)N[C@H](C(=O)O)C(C)C (mixture of isomers) [Compound 4, Z-L-phenylalanyl-(RS)-3-amino-2-oxopentanoyl-D-leucyl-L-valine] | 0.007 | 0.64 | – | – | – | –
CCC(NC(=O)[C@@H](NC(=O)OC(C)(C)C)C(C)C)C(=O)C(=O)N[C@H](CC(C)C)C(=O)OC(C)(C)C (mixture of isomers) [Compound 5, BOC-L-valyl-(RS)-3-amino-2-oxopentanoyl-D-leucyl t-butyl ester] | 0.04 | 2.2 | – | – | – | –
CC[C@H](NC(=O)[C@@H](NC(=O)[C@@H](N)C(C)C)C(C)C)C(=O)C(=O)N[C@H](CC(C)C)C(=O)N[C@H](C(=O)O)C(C)C [Compound 1, L-valyl-L-valyl-(3S)-3-amino-2-oxo-pentanoyl-D-leucyl-L-valyl] (H-VV[Abu(ψCOCO)][dL]V-OH) | 0.03 | 2.1 | soluble in water, methanol, and dimethyl sulfoxide; also recorded: insoluble in acetone, ethyl acetate, chloroform and hexane | at least 200 mg/kg | – | –
CC[C@H](NC(=O)[C@@H](NC(=O)[C@@H](NC(=O)OCc1ccccc1)C(C)C)C(C)C)C(=O)C(=O)N[C@H](CC(C)C)C(=O)N[C@H](C(=O)OCc1ccccc1)C(C)C [Compound 2, Z-L-valyl-L-valyl-(3S)-3-amino-2-oxo-pentanoyl-D-leucyl-L-valine benzyl ester] (Cbz-VV[Abu(ψCOCO)][dL]V-OBn) | 1 | 100 | – | – | – | –
CCC(NC(=O)[C@@H]1CCCN1C(=O)[C@@H](N)C(C)C)C(=O)C(=O)N[C@H](CC(C)C)C(=O)N[C@H](C(=O)O)C(C)C (stereo partly shown) [Compound 6] | – | – | – | – | 556 | > 185000
CCC(NC(=O)[C@@H]1CCCN1C(=O)[C@@H](NC(=O)CCCc1ccccc1)C(C)C)C(=O)C(=O)N[C@H](CC(C)C)C(=O)N[C@H](C(=O)O)C(C)C (stereo partly drawn) [Compound 7, phenylbutanoyl-L-valyl-L-propyl-3-amino-2-oxopentanoyl-D-leucyl-L-valine] ({Butanoyl(4-Ph)}-VP[ξ(3-Amino-2-oxopentanoyl)][dL]V-OH) | 0.17 | 72 | – | – | – | –
